From ChEMBL document CHEMBL5696442, “Discovery of type II inhibitors of TGFβ-activated kinase 1 (TAK1) and mitogen-activated protein kinase kinase kinase kinase 2 (MAP4K2)” (J Med Chem, 2015)

Legend:
[1] = molecular target: Serine/threonine-protein kinase WNK1 (Homo sapiens) (UniProt Q9H4A3); assay: Inhibition of Wnk1 ACT labeling site in human Huh-7 cells at 1 uM by KiNativ Profiling analysis relative to control; type: cell-based
[2] = molecular target: T1, Dual specificity mitogen-activated protein kinase kinase 6 (Homo sapiens) (UniProt P52564); assay: Inhibition of MAP2K6 ACT labeling site in human Huh-7 cell lysate at 1 uM by KiNativ Profiling analysis relative to control; type: subcellular
T1 sequence (whole entry): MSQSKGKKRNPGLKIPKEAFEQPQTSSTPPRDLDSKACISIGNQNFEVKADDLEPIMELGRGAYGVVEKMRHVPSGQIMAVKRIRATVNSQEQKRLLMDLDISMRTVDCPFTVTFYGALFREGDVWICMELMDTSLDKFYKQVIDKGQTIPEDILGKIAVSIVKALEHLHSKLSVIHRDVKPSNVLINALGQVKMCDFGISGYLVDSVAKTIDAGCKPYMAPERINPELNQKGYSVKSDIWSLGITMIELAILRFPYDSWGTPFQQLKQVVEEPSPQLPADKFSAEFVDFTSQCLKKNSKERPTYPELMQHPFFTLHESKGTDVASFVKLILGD

[3] = molecular target: Myosin light chain kinase (Homo sapiens) (UniProt Q32MK0); assay: Inhibition of MLCK (unknown origin) at 1 uM by Ambit Kinomescan binding assay relative to control; values are per cent of control
[4] = molecular target: Tyrosine-protein kinase Srms (Homo sapiens) (UniProt Q9H3Y6); assay: Inhibition of SRMS (unknown origin) at 1 uM by Ambit Kinomescan binding assay relative to control
[5] = molecular target: T2, Serine/threonine-protein kinase D1 (Homo sapiens) (UniProt Q15139); assay: Inhibition of PKD1 Lys1 labeling site in human A-375 cells at 5 uM by KiNativ Profiling analysis relative to control; type: cell-based
T2 sequence (whole entry): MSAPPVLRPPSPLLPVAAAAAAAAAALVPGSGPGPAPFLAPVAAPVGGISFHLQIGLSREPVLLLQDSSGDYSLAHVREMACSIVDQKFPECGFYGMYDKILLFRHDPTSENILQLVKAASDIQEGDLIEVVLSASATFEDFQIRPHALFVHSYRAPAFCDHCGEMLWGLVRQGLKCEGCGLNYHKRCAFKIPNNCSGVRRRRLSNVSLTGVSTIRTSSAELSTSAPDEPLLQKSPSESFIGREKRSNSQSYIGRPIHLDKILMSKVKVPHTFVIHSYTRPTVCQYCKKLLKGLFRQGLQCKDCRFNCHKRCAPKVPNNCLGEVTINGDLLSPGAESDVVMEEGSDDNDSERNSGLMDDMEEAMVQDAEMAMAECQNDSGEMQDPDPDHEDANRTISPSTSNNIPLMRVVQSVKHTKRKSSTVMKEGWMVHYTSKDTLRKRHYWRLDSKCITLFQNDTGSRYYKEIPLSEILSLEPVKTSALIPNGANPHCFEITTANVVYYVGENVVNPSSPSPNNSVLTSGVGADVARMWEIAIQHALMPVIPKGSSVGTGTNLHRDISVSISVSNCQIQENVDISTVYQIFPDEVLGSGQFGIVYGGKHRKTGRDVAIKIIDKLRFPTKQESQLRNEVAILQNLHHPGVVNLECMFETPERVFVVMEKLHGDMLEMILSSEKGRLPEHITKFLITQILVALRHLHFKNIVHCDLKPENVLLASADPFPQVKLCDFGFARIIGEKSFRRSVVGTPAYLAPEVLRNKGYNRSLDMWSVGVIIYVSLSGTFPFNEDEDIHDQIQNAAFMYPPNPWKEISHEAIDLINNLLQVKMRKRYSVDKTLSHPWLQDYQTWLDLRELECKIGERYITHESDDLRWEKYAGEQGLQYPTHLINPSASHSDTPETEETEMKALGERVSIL

[6] = Inhibition of […] K2 labeling site in human Huh-7 cells at 1 uM by KiNativ Profiling analysis relative to control; details: condition cancer
[7] = molecular target: Interleukin-1 receptor-associated kinase 1 (Homo sapiens) (UniProt P51617); assay: Inhibition of IRAK1 Lys2 labeling site in human A-375 cells at 0.5 uM by KiNativ Profiling analysis relative to control; type: cell-based
[8] = molecular target: T3, Mitogen-activated protein kinase kinase kinase kinase 2 (Homo sapiens) (UniProt Q12851); assay: Inhibition of MAP4K2 (GCK) Lys1 labeling site in human A-375 cells at 0.05 uM by KiNativ Profiling analysis relative to control; type: cell-based
T3 sequence (whole entry): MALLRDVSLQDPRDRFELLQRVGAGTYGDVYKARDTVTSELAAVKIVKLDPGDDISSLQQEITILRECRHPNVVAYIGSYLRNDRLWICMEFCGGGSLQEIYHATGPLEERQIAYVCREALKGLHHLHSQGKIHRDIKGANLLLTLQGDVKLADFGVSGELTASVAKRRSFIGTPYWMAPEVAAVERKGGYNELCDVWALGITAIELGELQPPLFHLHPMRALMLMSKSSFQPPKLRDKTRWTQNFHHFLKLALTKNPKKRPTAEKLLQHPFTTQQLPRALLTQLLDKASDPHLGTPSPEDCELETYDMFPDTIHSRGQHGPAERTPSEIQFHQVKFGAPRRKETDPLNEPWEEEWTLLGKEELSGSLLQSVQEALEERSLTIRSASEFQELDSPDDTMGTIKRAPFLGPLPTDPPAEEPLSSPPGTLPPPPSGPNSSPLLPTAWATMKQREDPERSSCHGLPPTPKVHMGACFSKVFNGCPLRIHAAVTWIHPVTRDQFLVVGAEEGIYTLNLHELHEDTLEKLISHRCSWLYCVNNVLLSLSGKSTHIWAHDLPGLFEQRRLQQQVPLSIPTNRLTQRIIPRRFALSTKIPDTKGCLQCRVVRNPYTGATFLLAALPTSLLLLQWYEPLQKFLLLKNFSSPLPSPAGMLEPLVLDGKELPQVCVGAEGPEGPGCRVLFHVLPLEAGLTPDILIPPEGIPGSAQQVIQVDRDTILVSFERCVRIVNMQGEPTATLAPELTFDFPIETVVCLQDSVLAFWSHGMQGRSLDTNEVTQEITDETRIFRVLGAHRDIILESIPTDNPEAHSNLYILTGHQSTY

[9] = molecular target: Glycogen synthase kinase-3 beta (Homo sapiens) (UniProt P49841); assay: Inhibition of GSK3B K2 labeling site in human Huh-7 cells at 1 uM by KiNativ Profiling analysis relative to control; type: cell-based
[10] = molecular target: p38 delta/gamma (Homo sapiens) (UniProt O15264+P53778); assay: Inhibition of p38d/g K2 labeling site in human Huh-7 cells at 1 uM by KiNativ Profiling analysis relative to control; type: cell-based
[11] = molecular target: Ribosomal protein S6 kinase alpha-1 (Homo sapiens) (UniProt Q15418); assay: Inhibition of RSK1 Protein Kinase Domain in human A-375 cells at 5 uM by KiNativ Profiling analysis relative to control; type: cell-based
Chain of Ribosomal protein S6 kinase alpha-1 (Homo sapiens) (Q15418 whole entry, the tested form may be a part): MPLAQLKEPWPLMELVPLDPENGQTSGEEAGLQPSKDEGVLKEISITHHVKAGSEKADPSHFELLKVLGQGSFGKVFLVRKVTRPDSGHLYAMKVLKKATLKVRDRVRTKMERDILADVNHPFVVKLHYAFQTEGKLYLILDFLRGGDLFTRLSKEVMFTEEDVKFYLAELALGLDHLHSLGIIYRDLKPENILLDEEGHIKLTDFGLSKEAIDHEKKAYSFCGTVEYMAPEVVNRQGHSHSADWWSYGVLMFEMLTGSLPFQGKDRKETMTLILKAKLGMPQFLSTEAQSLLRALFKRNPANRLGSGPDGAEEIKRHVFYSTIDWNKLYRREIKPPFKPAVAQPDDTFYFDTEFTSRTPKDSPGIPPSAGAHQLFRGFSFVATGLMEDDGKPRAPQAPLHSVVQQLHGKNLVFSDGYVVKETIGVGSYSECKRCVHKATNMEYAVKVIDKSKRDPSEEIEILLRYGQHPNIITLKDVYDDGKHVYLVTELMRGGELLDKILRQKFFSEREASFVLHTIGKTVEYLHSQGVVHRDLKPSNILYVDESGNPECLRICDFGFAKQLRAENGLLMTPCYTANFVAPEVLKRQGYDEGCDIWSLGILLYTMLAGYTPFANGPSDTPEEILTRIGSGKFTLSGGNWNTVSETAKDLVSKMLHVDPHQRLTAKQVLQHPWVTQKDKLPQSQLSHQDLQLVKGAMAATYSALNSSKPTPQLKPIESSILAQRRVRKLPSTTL

Chain of Tyrosine-protein kinase Srms (Homo sapiens) (Q9H3Y6 whole entry): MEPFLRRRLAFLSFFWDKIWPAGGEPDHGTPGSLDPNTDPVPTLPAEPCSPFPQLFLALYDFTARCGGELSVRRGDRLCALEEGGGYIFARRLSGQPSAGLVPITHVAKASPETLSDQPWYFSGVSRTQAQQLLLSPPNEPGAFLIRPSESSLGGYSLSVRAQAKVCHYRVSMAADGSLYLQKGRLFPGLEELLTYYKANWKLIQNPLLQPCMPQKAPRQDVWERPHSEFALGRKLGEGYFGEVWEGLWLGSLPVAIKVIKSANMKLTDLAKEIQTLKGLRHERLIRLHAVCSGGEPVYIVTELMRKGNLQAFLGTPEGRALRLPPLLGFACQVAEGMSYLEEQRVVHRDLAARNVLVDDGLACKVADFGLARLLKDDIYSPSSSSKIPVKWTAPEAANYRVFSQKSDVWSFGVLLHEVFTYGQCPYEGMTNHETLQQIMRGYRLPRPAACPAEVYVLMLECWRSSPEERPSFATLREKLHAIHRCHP
Chain of Glycogen synthase kinase-3 beta (Homo sapiens) (P49841 whole entry, looked up): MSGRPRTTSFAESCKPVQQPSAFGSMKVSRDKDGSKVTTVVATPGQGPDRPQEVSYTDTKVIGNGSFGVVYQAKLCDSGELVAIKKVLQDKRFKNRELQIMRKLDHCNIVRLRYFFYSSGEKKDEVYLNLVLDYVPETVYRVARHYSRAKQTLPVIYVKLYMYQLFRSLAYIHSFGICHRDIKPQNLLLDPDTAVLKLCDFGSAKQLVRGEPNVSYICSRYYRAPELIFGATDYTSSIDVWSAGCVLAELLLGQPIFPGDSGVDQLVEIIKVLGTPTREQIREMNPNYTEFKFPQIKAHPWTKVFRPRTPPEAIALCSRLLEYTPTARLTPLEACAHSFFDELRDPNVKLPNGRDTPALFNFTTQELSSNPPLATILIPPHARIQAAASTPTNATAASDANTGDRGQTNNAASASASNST
Chain of Interleukin-1 receptor-associated kinase 1 (Homo sapiens) (P51617 whole entry, looked up): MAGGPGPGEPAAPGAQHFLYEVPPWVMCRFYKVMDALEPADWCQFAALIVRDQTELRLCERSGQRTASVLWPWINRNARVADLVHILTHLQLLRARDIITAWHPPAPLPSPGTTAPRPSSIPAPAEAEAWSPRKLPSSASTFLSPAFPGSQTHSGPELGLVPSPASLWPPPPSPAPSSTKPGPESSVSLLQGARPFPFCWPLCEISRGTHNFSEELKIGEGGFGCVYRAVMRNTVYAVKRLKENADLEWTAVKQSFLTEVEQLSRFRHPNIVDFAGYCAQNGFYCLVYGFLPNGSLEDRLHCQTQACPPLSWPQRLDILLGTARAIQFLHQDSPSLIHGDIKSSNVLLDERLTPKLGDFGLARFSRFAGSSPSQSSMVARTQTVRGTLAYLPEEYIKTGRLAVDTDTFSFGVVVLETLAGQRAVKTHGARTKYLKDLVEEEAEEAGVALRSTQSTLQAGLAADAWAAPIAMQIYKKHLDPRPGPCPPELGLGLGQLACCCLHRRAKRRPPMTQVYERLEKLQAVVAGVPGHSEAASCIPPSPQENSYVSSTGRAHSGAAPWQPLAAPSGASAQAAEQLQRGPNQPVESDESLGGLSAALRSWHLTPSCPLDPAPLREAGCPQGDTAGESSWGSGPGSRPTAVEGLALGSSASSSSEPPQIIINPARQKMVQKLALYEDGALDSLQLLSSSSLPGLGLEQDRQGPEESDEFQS
Chain of Serine/threonine-protein kinase WNK1 (Homo sapiens) (Q9H4A3 whole entry, looked up): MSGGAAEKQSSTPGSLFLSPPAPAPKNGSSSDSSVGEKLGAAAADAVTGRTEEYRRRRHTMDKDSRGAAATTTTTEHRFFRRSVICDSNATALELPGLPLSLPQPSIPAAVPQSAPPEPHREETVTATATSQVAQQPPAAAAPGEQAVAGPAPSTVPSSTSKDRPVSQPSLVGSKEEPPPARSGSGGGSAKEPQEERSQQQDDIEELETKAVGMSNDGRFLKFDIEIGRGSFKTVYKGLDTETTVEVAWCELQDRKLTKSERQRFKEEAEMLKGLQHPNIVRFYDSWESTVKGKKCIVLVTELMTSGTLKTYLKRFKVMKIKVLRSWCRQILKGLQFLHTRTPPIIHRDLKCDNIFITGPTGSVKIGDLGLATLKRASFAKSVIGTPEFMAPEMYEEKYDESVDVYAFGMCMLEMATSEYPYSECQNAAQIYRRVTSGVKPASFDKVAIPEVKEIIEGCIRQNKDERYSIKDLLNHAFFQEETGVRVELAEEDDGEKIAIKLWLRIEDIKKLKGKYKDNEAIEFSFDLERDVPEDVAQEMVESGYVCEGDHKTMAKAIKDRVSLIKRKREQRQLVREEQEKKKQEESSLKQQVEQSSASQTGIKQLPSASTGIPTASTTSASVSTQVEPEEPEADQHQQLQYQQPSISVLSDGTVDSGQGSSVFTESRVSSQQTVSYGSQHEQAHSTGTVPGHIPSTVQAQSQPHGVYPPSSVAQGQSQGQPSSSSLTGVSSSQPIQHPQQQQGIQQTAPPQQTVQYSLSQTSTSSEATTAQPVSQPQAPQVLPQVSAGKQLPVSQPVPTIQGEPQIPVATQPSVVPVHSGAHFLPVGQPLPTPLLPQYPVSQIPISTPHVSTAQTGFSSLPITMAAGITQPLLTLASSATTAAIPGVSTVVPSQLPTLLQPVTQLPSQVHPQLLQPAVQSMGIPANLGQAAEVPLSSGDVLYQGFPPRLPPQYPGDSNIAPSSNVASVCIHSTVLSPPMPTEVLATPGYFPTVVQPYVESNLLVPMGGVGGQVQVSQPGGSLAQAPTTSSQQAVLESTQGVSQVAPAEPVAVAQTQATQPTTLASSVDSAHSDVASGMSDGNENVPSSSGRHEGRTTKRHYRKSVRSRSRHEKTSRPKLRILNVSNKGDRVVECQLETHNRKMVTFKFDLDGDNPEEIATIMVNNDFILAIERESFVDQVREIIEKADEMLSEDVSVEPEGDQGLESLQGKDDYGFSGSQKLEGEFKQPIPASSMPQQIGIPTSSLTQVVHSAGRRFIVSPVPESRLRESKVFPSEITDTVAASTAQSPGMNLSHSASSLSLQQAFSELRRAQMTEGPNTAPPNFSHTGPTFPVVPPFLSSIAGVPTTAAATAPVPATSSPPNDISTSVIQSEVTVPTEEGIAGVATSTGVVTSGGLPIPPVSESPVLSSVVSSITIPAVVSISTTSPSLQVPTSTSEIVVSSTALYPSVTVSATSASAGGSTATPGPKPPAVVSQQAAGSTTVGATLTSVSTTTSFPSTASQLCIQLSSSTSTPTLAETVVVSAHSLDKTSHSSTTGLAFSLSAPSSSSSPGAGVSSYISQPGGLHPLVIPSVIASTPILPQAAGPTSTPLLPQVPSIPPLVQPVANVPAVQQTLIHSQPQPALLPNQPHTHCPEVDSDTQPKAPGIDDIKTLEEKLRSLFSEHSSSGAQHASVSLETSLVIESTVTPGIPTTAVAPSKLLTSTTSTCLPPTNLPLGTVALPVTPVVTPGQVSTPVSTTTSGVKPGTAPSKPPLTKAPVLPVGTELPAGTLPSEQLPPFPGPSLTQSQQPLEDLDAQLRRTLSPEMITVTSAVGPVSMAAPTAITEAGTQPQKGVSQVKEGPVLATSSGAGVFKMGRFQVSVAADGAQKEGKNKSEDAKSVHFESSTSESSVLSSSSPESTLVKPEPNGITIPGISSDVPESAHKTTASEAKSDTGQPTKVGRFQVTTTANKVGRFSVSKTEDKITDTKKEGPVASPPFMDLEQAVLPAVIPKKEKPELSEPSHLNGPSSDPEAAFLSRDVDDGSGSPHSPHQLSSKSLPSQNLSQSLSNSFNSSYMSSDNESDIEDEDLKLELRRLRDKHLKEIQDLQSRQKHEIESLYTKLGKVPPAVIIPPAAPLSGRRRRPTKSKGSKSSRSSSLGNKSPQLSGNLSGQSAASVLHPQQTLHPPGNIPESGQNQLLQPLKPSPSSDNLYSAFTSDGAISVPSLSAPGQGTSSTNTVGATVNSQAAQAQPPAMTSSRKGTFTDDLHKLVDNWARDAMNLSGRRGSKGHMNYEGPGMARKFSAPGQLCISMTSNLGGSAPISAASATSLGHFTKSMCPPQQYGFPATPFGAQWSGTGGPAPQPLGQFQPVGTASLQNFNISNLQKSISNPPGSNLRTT

For `CNc1cc(Oc2cc(C(=O)Nc3cc(N4CCN(C)CC4)cc(C(F)(F)F)c3)ccc2C)ncn1`, which inhibition [1] is on record?
Its inhibition is 21.6%.

What about the inhibition [2] of the same compound?
Its inhibition is -1.2%.

For `CCN1CCN(Cc2ccc(NC(=O)c3ccc(C)c(/C=C/c4cnc5[nH]ccc5c4OC)c3)cc2C(F)(F)F)CC1`, which residual activity [3] is on record?
The residual activity was 100%.

What about the inhibition [4] of the same compound?
Its inhibition is 34%.

And the inhibition [5]?
The inhibition was -9.9%.

With `CCN1CCN(Cc2ccc(NC(=O)c3ccc(C)c(Oc4ccnc5[nH]ccc45)c3)cc2C(F)(F)F)CC1` as the compound, how does the inhibition at 1 µM [6] read?
Its inhibition at 1 µM is -16%.

And the inhibition [7]?
Its inhibition is 2.5%.

What about the inhibition [8] of the same compound?
Its inhibition is 98.2%.

And the inhibition [9]?
The inhibition was 2.9%.

And the inhibition [10]?
The inhibition was 25.2%.

What about the inhibition [11] of the same compound?
The inhibition was 5.8%.
